Measurements from patent US20240027453A1, “METHOD FOR DETECTION AND QUANTITATIVE MONITORING OF INFECTIONS WITH HERPESVIRUSES” (The Trustees of Princeton University, priority 2020, published 2024).
Like-named read-outs stand apart in the source and are kept apart here.

System: HCMV
Type: cell-based
Conditions: L
Experimental: In example herpesvirus PRM assay methods shown herein, cell pellets were lysed in 2% SDS, 100 mM NaCl, 0.5 mM EDTA, 50 mM Tris, pH 8.2, and 50 μg of protein was reduced and alkylated with 25 mM TCEP and 50 mM CAM respectively for 20 min at 70° C. Proteins were then precipitated via methanol chloroform precipitation (Wessel & Flugg, Anal Biochem. 138(1):141-143, 1984), resuspended in 50 mM HEPES, pH 8.2 and digested overnight with trypsin (50:1 protein:enzyme w/w ratio). Digested peptides were desalted by SDB-RPS StageTip as previously described (Lum et al., Cell Syst., 7(6):[…], 2018; Greco et al., Methods Mol Biol 1410:39-63, 2016; Federspiel & Cristea, Methods Mol Biol., 1977:115-143, 2019).
Peptides (1.0 μg on column) were analyzed by LC-MS/MS using a Dionex Ultimate 3000 UHPLC coupled online to an EASYSpray ion source and a Q Exactive HF. Peptides were separated on an EASYSpray C18 column (75 μm×25 cm) heated to 50° C. using a linear gradient of 5% B to 32% B over 60 min at a flow rate of 250 nL/min and were ionized at 1.7 kv. Mobile phase A consisted of 0.1% FA in H2O and mobile phase B consisted of 0.1% FA, 2.9% H2O in ACN.
The PRM method was controlled by a peptide inclusion list with retention time windows of 6 min for selected precursor ions.
The PRM assay was developed and analyzed using the open-source software Skyline (Maclean et al., Bioinformatics 26(7):966-968, 2010). Summed area under the curve of 3-4 transitions per peptide was used for quantitation. Targeted peptides were normalized to host protein loading control peptides. Peptide values for each sample were scaled to the average of each peptide across all runs. The average of multiple peptides was used as the inferred value for the protein measurement when more than one peptide was quantified (Federspiel et al., PLoS Biol. 17(9):e3000437. Doi: 10.1371/journal.pbio.3000437). PRM quantitation data were graphed using the Python Seaborn and Matplotlib libraries.
MRC5 primary human fibroblasts (HFs) (ATCC CCL-171) were used as the model system for HSV-1 and HCMV infections and were cultured in complete growth medium (DMEM supplemented with 10% fetal bovine serum and 1% penicillin-streptomycin antibiotics) at 37° C. and 5% CO2. iSLK.219 cells harboring latent KSHV (a gift from Dr. Britt Glaunsinger, University of California, Berkeley) were grown in complete growth medium supplemented with 500 μg/ml hygromycin (ThermoFisher Scientific, 10687010) at 37° C. and 5% CO2. All cells were used for experiments within a maximum of 10 passages.
Wild type HSV-1 strain 17+ (a gift from Beate Sodeik, Hannover Medical School, Hannover, Germany) was propagated as previously described (Diner et al., 2015). Briefly, PO stocks were generated by electroporating pBAC-HSV-1 into U-2 OS cells. […] In a similar manner, wild type HCMV strain AD169 was produced from BAC electroporation into HFs and working stocks were propagated by infecting HFs at a low level. In both cases, cell-associated virus was released by sonication, combined with supernatant virus, then concentrated by ultracentrifugation (20,000 rpm, 2 hours, 4° C. with SW28 swinging bucket rotor [Beckman Coulter]) over a 10% ficoll (HSV-1) or 20% sorbitol (HCMV) cushion. Virus stock titers were determined by plaque assay for HSV-1 or tissue culture infectious dose (TCID50) for HCMV and infections were performed at a multiplicity of infection (MOI) of 3.
12 hours prior to virus infection or reactivation, cells were treated with either the small molecule drug or DMSO/PBS control at an equivalent volume. […] For infection cycles lasting longer than 24 hours, small molecule drugs were re-added to the cell culture medium every 24 hours. Upon collection, cells were rinsed with PBS, scraped into a microcentrifuge tube, pelleted by centrifugation, and rinsed again with PBS.

Nc1ccn(C[C@@H](CO)OCP(=O)(O)O)c(=O)n1 [CDV, cidofovir]
UL82 (P06726) protein, numerical value of heatmap FIG. 6C (timepoint 48): 0.2148 | UL88 (P16731) protein, numerical value of heatmap FIG. 6C (timepoint 48): 0.05021 | UL94 (P16800) protein, numerical value of heatmap FIG. 6C (timepoint 48): 0.09258 | UL99 (P13200) protein, numerical value of heatmap FIG. 6C (timepoint 48): 0.06513 | UL103 (P16734) protein, numerical value of heatmap FIG. 6C (timepoint 48): 0.1954 | UL117 (P16770) protein, numerical value of heatmap FIG. 6C (timepoint 48): 0.3875 | gH (P12824) protein, numerical value of heatmap FIG. 6C (timepoint 48): 0.1304 | gL (P16832) protein, numerical value of heatmap FIG. 6C (timepoint 48): 0.06908 | gM (P16733) protein, numerical value of heatmap FIG. 6C (timepoint 48): 0.03119 | gN (P16795) protein, numerical value of heatmap FIG. 6C (timepoint 48): 0.07597 | sp|P16809|IR11_HCMVA (P16809) protein, numerical value of heatmap FIG. 6C (timepoint 48): 0.502 | CVC1 (P16799) protein, numerical value of heatmap FIG. 6C (timepoint 72): 0.4079 | GO (P16750) protein, numerical value of heatmap FIG. 6C (timepoint 72): 0.601 | MCP (P16729) protein, numerical value of heatmap FIG. 6C (timepoint 72): 0.4006 | SCP (Q7M6N6) protein, numerical value of heatmap FIG. 6C (timepoint 72): 0.3733 | TRM2 (P16792) protein, numerical value of heatmap FIG. 6C (timepoint 72): 0.5505 | UL22A (P16845) protein, numerical value of heatmap FIG. 6C (timepoint 72): 0.4199 | UL25 (P16761) protein, numerical value of heatmap FIG. 6C (timepoint 72): 0.4606 | UL29 (P16764) protein, numerical value of heatmap FIG. 6C (timepoint 72): 0.8549 | UL30 (P16765) protein, numerical value of heatmap FIG. 6C (timepoint 72): 0.4115 | UL31 (P16848) protein, numerical value of heatmap FIG. 6C (timepoint 72): 0.4223 | UL43 (P16781) protein, numerical value of heatmap FIG. 6C (timepoint 72): 0.2402 | UL52 (P16793) protein, numerical value of heatmap FIG. 6C (timepoint 72): 0.4658 | UL76 (P16725) protein, numerical value of heatmap FIG. 6C (timepoint 72): 0.3035 | UL79 (P16752) protein, numerical value of heatmap FIG. 6C (timepoint 72): 0.4713 | UL80 (P16753) protein, numerical value of heatmap FIG. 6C (timepoint 72): 0.6581 | UL82 (P06726) protein, numerical value of heatmap FIG. 6C (timepoint 72): 0.4947 | UL88 (P16731) protein, numerical value of heatmap FIG. 6C (timepoint 72): 0.4289 | UL94 (P16800) protein, numerical value of heatmap FIG. 6C (timepoint 72): 0.5474 | UL99 (P13200) protein, numerical value of heatmap FIG. 6C (timepoint 72): 0.455 | UL103 (P16734) protein, numerical value of heatmap FIG. 6C (timepoint 72): 0.5642 | UL117 (P16770) protein, numerical value of heatmap FIG. 6C (timepoint 72): 0.5867 | gH (P12824) protein, numerical value of heatmap FIG. 6C (timepoint 72): 0.7542 | gL (P16832) protein, numerical value of heatmap FIG. 6C (timepoint 72): 0.5073 | gM (P16733) protein, numerical value of heatmap FIG. 6C (timepoint 72): 0.477 | gN (P16795) protein, numerical value of heatmap FIG. 6C (timepoint 72): 0.5141 | sp|P16809|IR11_HCMVA (P16809) protein, numerical value of heatmap FIG. 6C (timepoint 72): 0.869 | CVC1 (P16799) protein, numerical value of heatmap FIG. 6C (timepoint 96): 0.6 | GO (P16750) protein, numerical value of heatmap FIG. 6C (timepoint 96): 0.5678 | MCP (P16729) protein, numerical value of heatmap FIG. 6C (timepoint 96): 0.8755 | SCP (Q7M6N6) protein, numerical value of heatmap FIG. 6C (timepoint 96): 0.678 | TRM2 (P16792) protein, numerical value of heatmap FIG. 6C (timepoint 96): 0.8343 | UL22A (P16845) protein, numerical value of heatmap FIG. 6C (timepoint 96): 0.5842 | UL25 (P16761) protein, numerical value of heatmap FIG. 6C (timepoint 96): 0.8443 | UL29 (P16764) protein, numerical value of heatmap FIG. 6C (timepoint 96): 0.8921 | UL30 (P16765) protein, numerical value of heatmap FIG. 6C (timepoint 96): 0.5445 | UL31 (P16848) protein, numerical value of heatmap FIG. 6C (timepoint 96): 0.6245 | UL43 (P16781) protein, numerical value of heatmap FIG. 6C (timepoint 96): 0.7777 | UL52 (P16793) protein, numerical value of heatmap FIG. 6C (timepoint 96): 0.8766 | UL76 (P16725) protein, numerical value of heatmap FIG. 6C (timepoint 96): 0.421 | UL79 (P16752) protein, numerical value of heatmap FIG. 6C (timepoint 96): 0.5586
